From US8075922B2, “Method of co-infusing a deoxygenated hemoglobin containing blood substitute and inorganic nitrite” (Montana State University-Bozeman, priority 2002, dated 2011)

Tested on: human patient
Conditions: sodium nitrite in phosphate buffered saline infused at 1 micromole per minute, begun before red blood cell transfusion

O=NO [sodium nitrite]
adverse effect of red blood cell transfusion: without adverse effect
